Measured values as given in ChEMBL document CHEMBL5252515, “Discovery of 6-Amino-2-{[(1S)-1-methylbutyl]oxy}-9-[5-(1-piperidinyl)pentyl]-7,9-dihydro-8H-purin-8-one (GSK2245035), a Highly Potent and Selective Intranasal Toll-Like Receptor 7 Agonist for the Treatment of Asthma” (J Med Chem, 2016).

What was measured:
Assay type in all cases: cell-based
Toll-like receptor 7 [1] = target: T1, Toll-like receptor 7 (Homo sapiens, UniProt Q9NYK1); assay: Agonist activity at TLR7 in cryopreserved human PBMC assessed as IFN-alpha production after 24 hrs by MSD assay
T1 sequence (Q9NYK1 whole entry): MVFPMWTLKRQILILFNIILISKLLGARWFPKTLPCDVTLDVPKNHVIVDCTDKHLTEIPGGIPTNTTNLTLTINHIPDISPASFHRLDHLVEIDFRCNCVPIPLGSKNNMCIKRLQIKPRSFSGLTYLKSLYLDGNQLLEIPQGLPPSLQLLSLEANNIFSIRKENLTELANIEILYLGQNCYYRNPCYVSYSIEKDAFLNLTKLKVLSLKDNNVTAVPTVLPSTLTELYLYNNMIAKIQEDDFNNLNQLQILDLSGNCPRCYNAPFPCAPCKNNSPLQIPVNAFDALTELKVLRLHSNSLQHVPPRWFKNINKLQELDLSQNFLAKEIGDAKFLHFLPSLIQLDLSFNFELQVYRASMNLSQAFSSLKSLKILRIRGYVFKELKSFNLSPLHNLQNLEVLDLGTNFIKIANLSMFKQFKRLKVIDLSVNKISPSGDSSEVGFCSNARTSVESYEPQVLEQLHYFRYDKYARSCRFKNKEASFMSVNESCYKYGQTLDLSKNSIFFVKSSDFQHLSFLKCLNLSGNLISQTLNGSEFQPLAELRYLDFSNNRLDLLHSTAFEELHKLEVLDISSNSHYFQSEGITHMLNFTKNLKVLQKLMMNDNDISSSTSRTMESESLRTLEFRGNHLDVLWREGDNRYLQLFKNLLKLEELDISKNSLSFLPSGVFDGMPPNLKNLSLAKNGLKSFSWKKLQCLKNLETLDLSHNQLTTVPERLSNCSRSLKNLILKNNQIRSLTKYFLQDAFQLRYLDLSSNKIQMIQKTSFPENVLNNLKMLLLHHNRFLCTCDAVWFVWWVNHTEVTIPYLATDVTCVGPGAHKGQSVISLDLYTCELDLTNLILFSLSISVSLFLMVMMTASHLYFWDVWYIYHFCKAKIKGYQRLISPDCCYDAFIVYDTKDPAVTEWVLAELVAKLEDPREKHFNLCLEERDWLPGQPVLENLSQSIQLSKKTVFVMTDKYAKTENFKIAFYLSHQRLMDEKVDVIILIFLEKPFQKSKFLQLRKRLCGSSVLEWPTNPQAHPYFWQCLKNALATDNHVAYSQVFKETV

Toll-like receptor 7 [2] = target: T1, Toll-like receptor 7; assay: Agonist activity at TLR7 in human PBMC assessed as TNF-alpha production after 24 hrs by electrochemiluminescence assay
Toll-like receptor 7 [3] = target: T1, Toll-like receptor 7; assay: Agonist activity at TLR7 in human PBMC assessed as IFN-alpha production after 24 hrs by electrochemiluminescence assay

CCCCOc1nc(N)c2nc(O)n(Cc3ccccc3)c2n1
EC50 (Toll-like receptor 7 [1]): 126 nM

CCCCOc1nc(N)c2[nH]c(=O)n(CCCCC3CCNCC3)c2n1
EC50 (Toll-like receptor 7 [2]): 631 nM
EC50 (Toll-like receptor 7 [3]): 0.631 nM

CCCCOc1nc(N)c2nc(O)n(CCCN3CCCCC3)c2n1
EC50 (Toll-like receptor 7 [1]): 316 nM

CCCCOc1nc(N)c2[nH]c(=O)n(CCCCC3CCCCO3)c2n1 (stereo not given)
EC50 (Toll-like receptor 7 [1]): 316 nM

CCCCOc1nc(N)c2[nH]c(=O)n(CC3CCOCC3)c2n1
EC50 (Toll-like receptor 7 [1]): 200 nM

CCCCOc1nc(N)c2[nH]c(=O)n(CCCCC3CCCOC3)c2n1 (stereo not given)
EC50 (Toll-like receptor 7 [1]): 39.8 nM

CC(C)Oc1nc(N)c2[nH]c(=O)n(CCCCCN3CCCCC3)c2n1
EC50 (Toll-like receptor 7 [2]): 12600 nM
EC50 (Toll-like receptor 7 [3]): 1 nM

CCCCOc1nc(N)c2[nH]c(=O)n(CCC3CCOCC3)c2n1
EC50 (Toll-like receptor 7 [1]): 200 nM

CCCCOc1nc(N)c2[nH]c(=O)n(CCCCN3CCOCC3)c2n1
EC50 (Toll-like receptor 7 [2]): 3980 nM
EC50 (Toll-like receptor 7 [3]): 200 nM

CCCCOc1nc(N)c2[nH]c(=O)n(CCCCN3CCCCCC3)c2n1
EC50 (Toll-like receptor 7 [2]): 6310 nM
EC50 (Toll-like receptor 7 [3]): 1.58 nM

CCCCOc1nc(N)c2[nH]c(=O)n(CCCCCCC3CCOCC3)c2n1
EC50 (Toll-like receptor 7 [1]): 794 nM

CCCCOc1nc(N)c2[nH]c(=O)n(CCCC3CCOCC3)c2n1
EC50 (Toll-like receptor 7 [1]): 63.1 nM

CCCCOc1nc(N)c2[nH]c(=O)n(CCN3CCCCC3)c2n1
EC50 (Toll-like receptor 7 [1]): 2510 nM

CCCCOc1nc(N)c2[nH]c(=O)n(CCCCC3CCOCC3)c2n1
EC50 (Toll-like receptor 7 [1]): 100 nM

CCC[C@H](C)Oc1nc(N)c2[nH]c(=O)n(CCCCC3CCOCC3)c2n1
EC50 (Toll-like receptor 7 [2]): 126 nM
EC50 (Toll-like receptor 7 [3]): 39.8 nM

CCCCOc1nc(N)c2[nH]c(=O)n(CCCCC3CCOC3)c2n1 (stereo not given)
EC50 (Toll-like receptor 7 [1]): 63.1 nM

CCCC[C@H](C)Oc1nc(N)c2[nH]c(=O)n(CCCCN3CCCCC3)c2n1
EC50 (Toll-like receptor 7 [2]): 2510 nM
EC50 (Toll-like receptor 7 [3]): 0.631 nM

CCCCOc1nc(N)c2[nH]c(=O)n(CCCCCN3CCCCC3)c2n1
EC50 (Toll-like receptor 7 [2]): 5010 nM
EC50 (Toll-like receptor 7 [3]): 7.94 nM

CCCCOc1nc(N)c2[nH]c(=O)n(CCCCCC3CCOCC3)c2n1
EC50 (Toll-like receptor 7 [1]): 50.1 nM

CCCCOc1nc(N)c2[nH]c(=O)n(CCCCN3CCCCC3)c2n1
EC50 (Toll-like receptor 7 [2]): 6310 nM
EC50 (Toll-like receptor 7 [3]): 6.31 nM

CC[C@H](C)Oc1nc(N)c2[nH]c(=O)n(CCCCCN3CCCCC3)c2n1
EC50 (Toll-like receptor 7 [2]): 10000 nM
EC50 (Toll-like receptor 7 [3]): 0.501 nM

CCCCOc1nc(N)c2[nH]c(=O)n(CCCCC3CCCO3)c2n1 (stereo not given)
EC50 (Toll-like receptor 7 [1]): 158 nM

CCCCOc1nc(N)c2[nH]c(=O)n(CCCCC3CCN(C(C)C)CC3)c2n1
EC50 (Toll-like receptor 7 [2]): 6310 nM
EC50 (Toll-like receptor 7 [3]): 0.794 nM

CCCCOc1nc(N)c2[nH]c(=O)n(CCCCCCN3CCCCC3)c2n1
EC50 (Toll-like receptor 7 [2]): 2000 nM
EC50 (Toll-like receptor 7 [3]): 1.58 nM

CCC[C@H](C)Oc1nc(N)c2[nH]c(=O)n(CCCCN3CCCCC3)c2n1
EC50 (Toll-like receptor 7 [2]): 2510 nM
EC50 (Toll-like receptor 7 [3]): 0.794 nM

CCCCOc1nc(N)c2[nH]c(=O)n(CCCCC3CCCNC3)c2n1 (stereo not given)
EC50 (Toll-like receptor 7 [2]): 1000 nM
EC50 (Toll-like receptor 7 [3]): 2.51 nM

Nc1nc(OC2CCCC2)nc2c1[nH]c(=O)n2CCCCN1CCCCC1
EC50 (Toll-like receptor 7 [2]): 12600 nM
EC50 (Toll-like receptor 7 [3]): 1000 nM

CCCCOc1nc(N)c2[nH]c(=O)n(CCCCN3CCN(C(C)C)CC3)c2n1
EC50 (Toll-like receptor 7 [2]): 6310 nM
EC50 (Toll-like receptor 7 [3]): 2.51 nM

CCCCOc1nc(N)c2[nH]c(=O)n(CCCCN3CCCC3)c2n1
EC50 (Toll-like receptor 7 [2]): 15800 nM
EC50 (Toll-like receptor 7 [3]): 20 nM
